# According to publication PMC12787479, “Steam Explosion as a Green Pretreatment Strategy to Enhance Total Phenolics Release and Biological Activities in Potentilla discolor Bunge Stems” (Molecules, 2025):
# Marks after values point to notes of the source that are not given here.
# Columns and labels:
# Assay type in all cases: biochemical
# [1] = ABTS free radical scavenging assay; settings: extract obtained under optimized extraction conditions; 30 min dark, 734 nm
# Description: The solution was then diluted fivefold before use. […] For standard curve construction, ascorbic acid solutions at concentrations of 2, 4, 8, 15, 25, and 50 μg/mL were treated in the same manner. All experiments were performed in triplicate, and results were expressed as mean ± SD. The absorbance values were measured at 734 nm, and the scavenging rate was calculated using Equation (1). […] All data were represented as mean ± standard deviation (SD) and the significant statistical differences was determined by a one-way ANOVA test using SPSS version 22.0. Different lowercase letters were regarded as significant differences (p < 0.05).
# [2] = DPPH free radical scavenging assay; settings: extract obtained under optimized extraction conditions; 25 °C, 30 min, 517 nm
# Description: DPPH ethanol solution (0.12 μmol/mL, 0.1 mL) was mixed with 0.1 mL different concentrations of PDB stem solutions (10, 25, 50, 75, and 100 μg/mL). Incubation was carried out in a dark environment at 25 °C for 30 min. […] The absorbance values were measured at 517 nm using an enzyme meter. All experiments were performed in triplicate, and results are expressed as mean ± standard deviation (SD). The calculation formula was as follows.(3) Radical scavenging rate %=[…]×100% where Ac was the absorbance of blank group; As was the absorbance of PDB stem group, respectively. […] All data were represented as mean ± standard deviation (SD) and the significant statistical differences was determined by a one-way ANOVA test using SPSS version 22.0. Different lowercase letters were regarded as significant differences (p < 0.05).
# [3] = FRAP reduction assay (ferric reducing antioxidant power); settings: absorbance at 700 nm at a concentration of 600 μg/mL
# Description: Extraction solutions of PDB stems at 0.4, 0.6, 0.8, 1.0, or 1.2 mg/mL (0.1 mL each) were mixed with an equal volume (0.1 mL) of 30 μmol/mL K3[Fe(CN)6] solution (1:1, v/v) and incubated at 50 °C for 20 min. Then, 0.2 mL of 10% (w/v) trichloroacetic acid (TCA) solution was added, and the resulting mixture was defined as solution A. Finally, 0.1 mL of solution A was mixed with 0.1 mL of 3.4 μmol/mL FeCl3 solution, and the absorbance of the mixture was measured at 700 nm. […] All experiments were performed in triplicate, and results are expressed as mean ± SD.
compound,measurement,setting,value
O=C1O[C@H]([C@@H](O)CO)C(O)=C1O [Ascorbic acid],ABTS·IC50,[1],20.71 ± 0.42 ^a μg/mL
same,DPPH·IC50,[2],3.47 ± 0.02 ^a μg/mL
same,"FRAP (A700, 600 μg/mL)",[3],3.17 ± 0.05 ^a
same,"FRAP (A700, 600 μg/mL)",[3]; listed as ascorbic acid,3.17 ± 0.05
